Results from patent US10869904B2, “Pharmaceutical composition for preventing or treating respiratory disease comprising extract of Justicia procumbens L” (DONG WHA PHARM. CO., LTD., priority 2016, dated 2020).
Marks after values point to notes of the source that are not given here.

Key:
IL4 = assay: Inhibition of IL4 secretion by Concanavalin A-treated splenocytes (ELISA); assay type: cell-based, Balb/c mice; conditions: for inhibition of IL4 secretion (in words): text on Tables 7 and 8
Description: (§1) The isolated splenocytes were diluted in RPMI medium (containing 10% fetal bovine serum (FBS) and antibiotics (100 U/mL penicillin and 100 μg/mL streptomycin)) at a concentration of 5×10^6 cells/nit, and the cell dilution was dispended in a 24-well plate in an amount of 500 μl/well and in a 96-well plate in an amount of 100 μl/well. The plates were incubated in a 5% CO2 incubator at 37° C. for 48 hours. […] The medium of the 24-well plate was used to measure the degree of secretion of Th2 inflammatory cytokines (IL4 and IL5), and the 96-well plate was used to measure the degree of cell proliferation. First, in order to measure Th2 cytokines, the medium in the 24-well plate was collected and centrifuged at 800×g for 5 minutes, and the supernatant was collected. 100 μl of the supernatant per well was used in IL4 or IL5 enzyme-linked immunosorbent assay (ELISA, Komabiotech Inc.) to measure the degree of secretion of these cytokines. In order to measure the degree of cell proliferation, […] of CCK8 (cell counting kit 8, Donjindo) solution was added to each well of the 96-well plate, and after 4 hours, the absorbance value was measured. The degree of inhibition of spleen cell proliferation by each drug and the degree of inhibition of Th2 cytokine secretion by each drug were calculated using Equation 2 below. For drug synergistic effects, a linear equation was constructed using the concentrations of drugs administered alone as x-coordinates and using drug concentration-dependent inhibition as y-coordinates. Using this linear equation, the concentrations of drugs administered alone, which correspond to inhibition achieved when administered in combination, were calculated, and combination index (CI) was calculated using Equation 3 below. A CI value of less than 1 indicates a synergistic effect, a CI value of 1 indicates an additive effect, and a CI value of more than 1 indicates an antagonistic effect (Liang Zhao et. al., Clinical Cancer Research, 10, 7994-8004, 2004). […]

splenocytes = assay: Inhibition of Concanavalin A-induced splenocyte proliferation (CCK8); assay type: cell-based, Balb/c mice; conditions: for inhibition of splenocyte proliferation (in words): Tables 4 to 6
Description: as §1

IL5 = assay: Inhibition of IL5 secretion by Concanavalin A-treated splenocytes (ELISA); assay type: cell-based, Balb/c mice; conditions: for inhibition of IL5 secretion (in words): text on Tables 7 and 8
Description: as §1

[1] = test system: Neutrophilic Asthma Balb/c Mouse Models; assay: Asthma inhibitory effect in neutrophilic asthma model (ovalbumin + LPS): lung lavage fluid and lung tissue; assay type: in vivo, Balb/c mice; conditions: 10 mg/kg, oral
Description: On 0 and 7 days after 1 week of acclimation, each of the mice was systematically sensitized by intranasally administering 75 μg of ovalbumin and 10 μg of lipopolysaccharide (LPS). 20, 50 or 100 mg/kg of the Justicia procumbens L. prepared in Preparation Example 3 or a positive control (10 mg/kg of dexamethasone and 1 mg/kg of montelukast) was administered orally to the mice On days 14, 15, 21, 22, 28, 29, 35, 36 and 37. One hour after administration, 50 μg of ovalbumin was administered intranasally to the mice. 24 hours after final sensitization (day 37), lung lavage fluid was obtained through tracheostomy, and the lung tissue was isolated. The collected lung lavage fluid was centrifuged at 3000 rpm […], and the supernatant was used to measure physiologically active substances (IL-4, IL-5, and IFN-γ), and the pellets were used to measure the number of inflammatory cells. The physiologically active substances (interleukin-4 (IL-4), interleukin-5 (IL-5), and interferon-gamma (IFN-γ)) in the isolated lung lavage fluid were measured using an enzyme-linked immunosorbent assay (ELISA, IL-4: Komabiotech #K0331144, IL-5: R&D system #M5000, IFN-γ: Komabiotech #K0331138) corresponding to each substance. In addition, the lung lavage fluid pellets were re-dissolved in 0.5 mL of phosphate buffered saline, and 0.1 mL of the solution was added to each well of a 96-well plate and centrifuged at 800 rpm for 5 minutes to attach the cells to the bottom (3 wells per sample). Then, each sample was stained with Diff Quik staining solution (Sysmex), and photographed with a microscope at 2-6 random sites. About 200 cells per sample were counted and the percentage (%) of inflammatory cells of each sample was calculated. The total number of inflammatory cells was measured with a microscope using a hematocytometer, and the number of eosinophils and the number of neutrophils were calculated using the percentage (%) of inflammatory cells of each sample. Staining of the lung tissue was performed in the same manner as described in Example 5 above. Statistical processing was performed using an SPSS program, and a Levene test was performed for a test for equal variance, and significance was tested by one-way analysis (ANOVA).

[2] = Table 8, Concentration (mM) 0.25
[3] = Table 8, Concentration (mM) 0.5

Compound	Inhibition of IL4 secretion (%, n = 2, Mean ± SD) (IL4; Table 7, 1 μM) [%]	Inhibition of IL4 secretion (%, n = 2, Mean ± SD) (IL4; Table 7, 5 μM) [%]	Inhibition of IL4 secretion (%, n = 2, Mean ± SD) (IL4; Table 8, Concentration (mM) 1) [%]	Inhibition of IL4 secretion (%, n = 2, Mean ± SD) (IL4; Table 8, Concentration (mM) 5) [%]	inhibition of IL4 secretion (in words) (IL4)	Inhibition of splenocyte proliferation (%, n = 3, Mean ± SD) (splenocytes; Table 5, 0.5 μM) [%]	Inhibition of splenocyte proliferation (%, n = 3, Mean ± SD) (splenocytes; Table 5, 5 μM) [%]	Inhibition of splenocyte proliferation (%, n = 3, Mean ± SD) (splenocytes; Table 6, 1 μM) [%]	Inhibition of splenocyte proliferation (%, n = 3, Mean ± SD) (splenocytes; Table 6, 5 μM) [%]	inhibition of splenocyte proliferation (in words) (splenocytes)	Inhibition of IL5 secretion (%, n = 2, Mean ± SD) (IL5; Table 7, 1 μM) [%]	Inhibition of IL5 secretion (%, n = 2, Mean ± SD) (IL5; Table 7, 5 μM) [%]	Inhibition of IL5 secretion (%, n = 2, Mean ± SD) (IL5; Table 8, Concentration (mM) 1) [%]	Inhibition of IL5 secretion (%, n = 2, Mean ± SD) (IL5; Table 8, Concentration (mM) 5) [%]	inhibition of IL5 secretion (in words) (IL5)	further results
COc1cc2c(OC)c3c(c(-c4ccc5c(c4)OCO5)c2cc1OC)C(=O)OC3 [Justicidin A, justicidin A]	−10.6 ± 0.08	54.7 ± 0.02	71.6 ± 0.02	86.4 ± 0.04	inhibited the secretion of IL4 and IL5	−2.7 ± 1.84	85.0 ± 2.43	43.4 ± 1.63	99.0 ± 2.35	high inhibitory activities	25.4 ± 0.01	56.7 ± 0.00	11.7 ± 0.27	25.7 ± 0.08	inhibited the secretion of IL4 and IL5	Inhibition of splenocyte proliferation (%, n = 3, Mean ± SD) (splenocytes; Table 5, 1 μM): 9.4 ± 4.36%; Inhibition of splenocyte proliferation (%, n = 3, Mean ± SD) (splenocytes; Table 5, 2.5 μM): 56.4 ± 18.80%
CC(C)(O)c1ccccc1CC[C@@H](SCC1(CC(=O)O)CC1)c1cccc(/C=C/c2ccc3ccc(Cl)cc3n2)c1 [Montelukast, montelukast]																inhibition at 10 µM (IL4; Mus musculus, Splenocyte, Table 7, 10 μM, read-out: Inhibition of IL4 secretion (%, n = 2, Mean ± SD)): -42.6 ± 0.08%; inhibition at 10 µM (splenocytes; Mus musculus, Splenocyte, Table 4, 10 μM, read-out: Inhibition of splenocyte proliferation (n = 3, Mean ± SD)): 44.1 ± 4.34%; inhibition at 0.5 µM (splenocytes; Mus musculus, Splenocyte, Table 5, 0.5 μM, read-out: Inhibition of splenocyte proliferation (%, n = 3, Mean ± SD)): 40.2 ± 2.64%; Epithelium thickness (μm), n = 5, Mean ± S.E. [1]: 25.5 ± 1.64 μm; Lung lavage fluid_IFN-γ (pg/mL), n = 5, Mean ± S.E. [1]: 32.2 ± 2.13## pg/mL; Lung lavage fluid_IL-4 (pg/mL), n = 5, Mean ± S.E. [1]: 96.9 ± 14.40## pg/mL; Lung lavage fluid_IL-5 (pg/mL), n = 5, Mean ± S.E. [1]: 194.4 ± 23.1## pg/mL; Lung lavage fluid_eosinophil number (×10^5), n = 5, Mean ± S.E. [1]: 0.7 ± 0.05## ×10^5; Lung lavage fluid_neutrophil number (×10^5), n = 5, Mean ± S.E. [1]: 1.5 ± 0.07## ×10^5; Lung lavage fluid_total inflammatory cell number (×10^5), n = 5, Mean ± S.E. [1]: 4.0 ± 0.25## ×10^5; Subepithelial smooth muscle thickness (μm), n = 5, Mean ± S.E. [1]: 10.7 ± 0.59 μm; inhibition at 10 µM (IL5; Mus musculus, Splenocyte, Table 7, 10 μM, read-out: Inhibition of IL5 secretion (%, n = 2, Mean ± SD)): 70.2 ± 0.01%
phyllamyricin C	9.8 ± 0.05	14.4 ± 0.01	11.8 ± 0.01	51.5 ± 0.11	inhibited the secretion of IL4 and IL5	0.9 ± 2.86	18.8 ± 2.82	19.0 ± 18.44	25.0 ± 11.37	exhibited the effect of inhibiting splenocyte proliferation	22.9 ± 0.01	67.9 ± 0.01	0.5 ± 0.05	31.6 ± 0.08	inhibited the secretion of IL4 and IL5	
COc1cc2c(OC)c3c(c(-c4ccc5c(c4)OCO5)c2cc1OC)COC3=O [Justicidin C, justicidin C]	−14.1 ± 0.05	26.1 ± 0.04	25.3 ± 0.15	51.7 ± 0.02	inhibited the secretion of IL4 and IL5	−3.6 ± 4.00	8.4 ± 3.20	6.7 ± 15.08	31.7 ± 12.81	exhibited the effect of inhibiting splenocyte proliferation	39.8 ± 0.03	36.4 ± 0.02	16.9 ± 0.06	26.2 ± 0.00	inhibited the secretion of IL4 and IL5	
COc1cc2cc3c(c(-c4ccc5c(c4)OCO5)c2cc1OC)C(=O)OC3 [Justicidin B, justicidin B]	78.2 ± 0.01				inhibited the secretion of IL4 and IL5	64.3 ± 0.50				high inhibitory activities	84.4 ± 0.00				inhibited the secretion of IL4 and IL5	Inhibition of IL4 secretion (%, n = 2, Mean ± SD) (IL4; Table 7, 0.5 μM): 35.9 ± 0.01%; Inhibition of IL4 secretion (%, n = 2, Mean ± SD) (IL4; [2]): 81.6 ± 0.02%; Inhibition of IL4 secretion (%, n = 2, Mean ± SD) (IL4; [3]): 87.6 ± 0.02%; Inhibition of splenocyte proliferation (%, n = 3, Mean ± SD) (splenocytes; Table 5, 0.25 μM): 14.2 ± 1.43%; Inhibition of splenocyte proliferation (%, n = 3, Mean ± SD) (splenocytes; Table 6, 0.25 μM): 72.5 ± 2.66%; Inhibition of splenocyte proliferation (%, n = 3, Mean ± SD) (splenocytes; Table 6, 0.5 μM): 90.8 ± 0.94%; Inhibition of IL5 secretion (%, n = 2, Mean ± SD) (IL5; Table 7, 0.5 μM): 55.8 ± 0.01%; Inhibition of IL5 secretion (%, n = 2, Mean ± SD) (IL5; [2]): 41.9 ± 0.04%; Inhibition of IL5 secretion (%, n = 2, Mean ± SD) (IL5; [3]): 66.8 ± 0.10%
